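1) Cells in 96-well plates. 2) Compound, 48 h, 5 concentrations. 3) Linear interpolation between surrounding doses. 4) Unreached endpoint = highest concentration. GI50: concentration for 50% inhibition of growth.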 Calls of active or inactive are those of the source. Cut-off read from the data, not from the text of the source: active = GI50 up to about 1.1 µM and inactive = higher.
What was measured:
Experiment in all cases: inhibition of tumour cell growth, NCI panel, 48 h
SK-MEL-2 = test system: SK-MEL-2
OVCAR-5 = test system: OVCAR-5
SW-620 = test system: SW-620
HOP-62 = test system: HOP-62
SK-MEL-5 = test system: SK-MEL-5
MDA-N = test system: MDA-N
HCT-116 = test system: HCT-116
HOP-92 = test system: HOP-92
ACHN = test system: ACHN
MCF7 = test system: MCF7
NCI-H460 = test system: NCI-H460
DU-145 = test system: DU-145
OVCAR-8 = test system: OVCAR-8
COLO 205 = test system: COLO 205
HCC 2998 = test system: HCC 2998
RXF 393 = test system: RXF 393
SN12C = test system: SN12C
NCI-H23 = test system: NCI-H23
SNB-19 = test system: SNB-19
Malme-3M = test system: Malme-3M
SF-268 = test system: SF-268
U-251 = test system: U-251
HCT-15 = test system: HCT-15
NCI/ADR-RES = test system: NCI/ADR-RES
SNB-75 = test system: SNB-75
LOX IMVI = test system: LOX IMVI
EKVX = test system: EKVX
SK-MEL-28 = test system: SK-MEL-28
T47D = test system: T47D
SK-OV-3 = test system: SK-OV-3
UACC-257 = test system: UACC-257
CAKI-1 = test system: CAKI-1
SR = test system: SR
UACC-62 = test system: UACC-62
SF-295 = test system: SF-295
OVCAR-3 = test system: OVCAR-3
NCI-H226 = test system: NCI-H226
HL-60 = test system: HL-60
A498 = test system: A498
TK-10 = test system: TK-10
K562 = test system: K562
M14 = test system: M14
SF-539 = test system: SF-539
MDA-MB-435 = test system: MDA-MB-435
IGROV-1 = test system: IGROV-1
UO-31 = test system: UO-31
Hs-578T = test system: Hs-578T
A549 = test system: A549
KM12 = test system: KM12
786-0 = test system: 786-0
HT-29 = test system: HT-29
PC-3 = test system: PC-3
NCI-H522 = test system: NCI-H522
BT-549 = test system: BT-549
OVCAR-4 = test system: OVCAR-4
MDA-MB-231 = test system: MDA-MB-231
MOLT-4 = test system: MOLT-4
RPMI-8226 = test system: RPMI-8226

## COC1(OC)CCCCCCCCC(OC)(OC)CCCCCCCC1
SK-MEL-2
  GI50: > 100 µM (inactive)
OVCAR-5
  GI50: > 100 µM (inactive)
SW-620
  GI50: > 100 µM (inactive)
HOP-62
  GI50: > 100 µM (inactive)
SK-MEL-5
  GI50: > 100 µM (inactive)
MDA-N
  GI50: > 100 µM (inactive)
HCT-116
  GI50: > 100 µM (inactive)
HOP-92
  GI50: > 100 µM (inactive)
ACHN
  GI50: > 100 µM (inactive)
MCF7
  GI50: > 100 µM (inactive)
NCI-H460
  GI50: > 100 µM (inactive)
DU-145
  GI50: > 100 µM (inactive)
OVCAR-8
  GI50: > 100 µM (inactive)
COLO 205
  GI50: > 100 µM (inactive)
HCC 2998
  GI50: > 100 µM (inactive)
RXF 393
  GI50: > 100 µM (inactive)
SN12C
  GI50: > 100 µM (inactive)
NCI-H23
  GI50: > 100 µM (inactive)
SNB-19
  GI50: > 100 µM (inactive)
Malme-3M
  GI50: > 100 µM (inactive)
SF-268
  GI50: > 100 µM (inactive)
U-251
  GI50: > 100 µM (inactive)
HCT-15
  GI50: > 100 µM
NCI/ADR-RES
  GI50: > 100 µM (inactive)
SNB-75
  GI50: > 100 µM (inactive)
LOX IMVI
  GI50: > 100 µM (inactive)
EKVX
  GI50: > 100 µM (inactive)
SK-MEL-28
  GI50: > 100 µM (inactive)
T47D
  GI50: > 100 µM (inactive)
SK-OV-3
  GI50: > 100 µM (inactive)
UACC-257
  GI50: > 100 µM (inactive)
CAKI-1
  GI50: > 100 µM (inactive)
SR
  GI50: > 100 µM (inactive)
UACC-62
  GI50: > 100 µM (inactive)
SF-295
  GI50: > 100 µM (inactive)
OVCAR-3
  GI50: > 100 µM (inactive)
NCI-H226
  GI50: > 100 µM (inactive)
HL-60
  GI50: > 100 µM (inactive)
A498
  GI50: > 100 µM (inactive)
TK-10
  GI50: > 100 µM (inactive)
K562
  GI50: > 100 µM (inactive)
M14
  GI50: > 100 µM (inactive)
SF-539
  GI50: > 100 µM (inactive)
MDA-MB-435
  GI50: > 100 µM (inactive)
IGROV-1
  GI50: > 100 µM (inactive)
UO-31
  GI50: 0.553 µM (active)
Hs-578T
  GI50: > 100 µM (inactive)
A549
  GI50: > 100 µM (inactive)
KM12
  GI50: > 100 µM (inactive)
786-0
  GI50: > 100 µM (inactive)
HT-29
  GI50: > 100 µM (inactive)
PC-3
  GI50: > 100 µM (inactive)
NCI-H522
  GI50: > 100 µM (inactive)

## CC1(C)COC(c2cccc(C3=NC(C)(C)CO3)c2Br)=N1
SK-MEL-2
  GI50: > 100 µM (inactive)
OVCAR-5
  GI50: > 100 µM (inactive)
SW-620
  GI50: > 100 µM (inactive)
HOP-62
  GI50: > 100 µM (inactive)
SK-MEL-5
  GI50: > 100 µM (inactive)
BT-549
  GI50: > 100 µM (inactive)
HCT-116
  GI50: > 100 µM (inactive)
HOP-92
  GI50: > 100 µM (inactive)
ACHN
  GI50: > 100 µM (inactive)
MCF7
  GI50: > 100 µM (inactive)
NCI-H460
  GI50: > 100 µM (inactive)
DU-145
  GI50: > 100 µM (inactive)
OVCAR-8
  GI50: > 100 µM (inactive)
COLO 205
  GI50: > 100 µM (inactive)
HCC 2998
  GI50: > 100 µM (inactive)
RXF 393
  GI50: > 100 µM (inactive)
NCI-H23
  GI50: > 100 µM (inactive)
SNB-19
  GI50: > 100 µM (inactive)
Malme-3M
  GI50: > 100 µM (inactive)
SF-268
  GI50: > 100 µM (inactive)
U-251
  GI50: > 100 µM (inactive)
HCT-15
  GI50: > 100 µM
NCI/ADR-RES
  GI50: > 100 µM (inactive)
SNB-75
  GI50: 3.05 µM (inactive)
LOX IMVI
  GI50: > 100 µM (inactive)
EKVX
  GI50: > 100 µM (inactive)
OVCAR-4
  GI50: > 100 µM (inactive)
SK-MEL-28
  GI50: > 100 µM (inactive)
T47D
  GI50: > 100 µM (inactive)
UACC-257
  GI50: > 100 µM (inactive)
CAKI-1
  GI50: > 100 µM (inactive)
SR
  GI50: > 100 µM (inactive)
UACC-62
  GI50: 7.48 µM (inactive)
MDA-MB-231
  GI50: > 100 µM (inactive)
MOLT-4
  GI50: > 100 µM (inactive)
NCI-H226
  GI50: > 100 µM (inactive)
HL-60
  GI50: > 100 µM (inactive)
TK-10
  GI50: > 100 µM (inactive)
K562
  GI50: > 100 µM (inactive)
M14
  GI50: > 100 µM (inactive)
SF-539
  GI50: > 100 µM (inactive)
MDA-MB-435
  GI50: > 100 µM (inactive)
RPMI-8226
  GI50: > 100 µM (inactive)
IGROV-1
  GI50: > 100 µM (inactive)
UO-31
  GI50: > 100 µM (inactive)
A549
  GI50: > 100 µM (inactive)
KM12
  GI50: > 100 µM (inactive)
786-0
  GI50: > 100 µM (inactive)
HT-29
  GI50: > 100 µM (inactive)
PC-3
  GI50: > 100 µM (inactive)

— ChEMBL document CHEMBL1201862, “PubChem BioAssay data set” (2004)
